Assay results from patent US7381546B2, “Polyketides and their synthesis and use” (Biotica Technology Limited, priority 1998, dated 2008).
pIC50: −log10 of the molar value. Like-named read-outs stand apart in the source and are kept apart here. Blank lines part the entries; values can stand above or below the compound they belong to.

Test system: human lymphoblastoid cell lines 536
Assay: Tritiated thymidine incorporation (DNA synthesis) bioassay in 536 cells
Type: cell-based
Conditions: for pIC50: after 24 and 48 hours drug exposure, radiolabelled thymidine incorporation (FIG. 4), read-out: ID50% concentration-dependent inhibition of DNA synthesis
Protocol: Rapamycin induces a specific cell cycle arrest in G1 in the cell line 536, which is a human B lymphocytic line immortalised by Epstein Barr virus infection. The potency of each analogue was compared to that of rapamycin using the 536 cells as a bioassay. The 536 cells (obtained from the human genetic mutant cell repository, Camden, N.J., USA) were cultured in Iscoves medium supplemented with 10% fetal calf serum. For bioassay, 536 cells were seeded into 96 well microtitre plates at 10,000 per well in 100 μl of growth medium. Drug stocks of 1 mM in DMSO were prepared and further dilutions were made to give a constant final concentration of 0.1% DMSO in growth medium. Control cultures were treated with 0.1% DMSO in growth medium; experimental cultures received a final concentration of 10^−7M, 10^−8M, 10^−9M or 10^−10M rapamycin or rapamycin analogue. Each culture was set up in triplicate and replicate plates were labelled with 1 μCi tritiated thymidine (Amersham International, specific activity 70 Ci/mM) per well for 3 h at either Oh; 24 h; or 48 h incubation with drugs. At the respective time points the cultures were harvested onto glass fibre paper to trap the DNA following water lysis; free nucleotides were washed away. Radioactivity incorporated into the filter discs/trapped DNA was counted in a Packard scintillation counter using biodegradable scintillation fluid.
The dose response of human lymphoblastoid cell lines 536 was measured. […] This implies that none of the compounds were toxic to the 536 cell line.

Compound: 4-hydroxy-prolyl-26-demethoxy-rapamycin
effect on DNA synthesis (mean cpm of radiolabelled thymidine incorporated) (0-3 h drug exposure, up to 100 nM (FIG. 3)): no appreciable effect
inhibition of DNA synthesis (at 100 nM, after 24 and 48 hours (FIG. 4)): < 50%

pIC50: 8.52
Compound: COC1CC2CCC(C)C(O)(O2)C(=O)C(=O)N2CCCC2C(=O)OC(C(C)CC2CCC(O)C(OC)C2)CC(=O)C(C)/C=C(\C)C(O)C(OC)C(=O)C(C)CC(C)/C=C/C=C/C=C/1C (stereo not shown) [prolylrapamycin]

pIC50 (Homo sapiens, Lymphoblastoid cell): 9.00
Compound: CO[C@H]1C[C@@H]2CC[C@@H](C)[C@@](O)(O2)C(=O)C(=O)N2CCCC[C@H]2C(=O)O[C@H]([C@H](C)C[C@@H]2CC[C@@H](O)[C@H](OC)C2)CC(=O)[C@H](C)/C=C(\C)[C@@H](O)[C@@H](OC)C(=O)[C@H](C)C[C@H](C)/C=C/C=C/C=C/1C [rapamycin, reference compound]
